Source: publication PMC5601625, “Defining a therapeutic window for kinase inhibitors in leukemia to avoid neutropenia” (Oncotarget, 2017)
Entries after “also recorded” stand apart in the source; their conditions may differ. Read-outs that look alike come from different tables or passages of the source. Each block holds one compound with its values, some of them ahead of it.

Key:
EOL-1 = experiment: Cell Titer Glo cell viability assay, 48 h; assay type: cell-based, human; conditions: 48 h, mean of 2 independent experiments, 0 = less than 10 nM, cell line not given, read-out: IC50 of inhibitors on cell lines, m (mean)
Experimental: (§1) The activity of the kinase inhibitor collection against a panel of human leukemia cell lines was determined in cell viability assays run over 48 h using the Cell Titer Glo reagent.
(§2) Figure 1 Effects of kinase inhibition on the proliferation of leukemia cells A. Human leukemia cell lines were treated with duplicate serial dilutions of kinase inhibitors and the effect on cell viability was determined by Cell Titer Glo assay after 48 hours. […] HL-60 cells were treated with serial dilutions of mTor/PI3K B. and MEK C. inhibitors and the effect on cell viability was determined after 48 hours. Data shown is the mean ± SEM of 3 independent experiments.
(§3) Leukemia and lymphoma cell lines were grown in RPMI containing 10% FCS. […] Cell lines are routinely tested for mycoplasma and genotyped by short tandem repeating (STR) profiling to confirm identity.
(§4) Compounds were obtained from SynMedChem and dissolved at […] in DMSO. Serial 2-fold dilutions of each compound were prepared in DMSO using a liquid handling robot (Janus, Perkin Elmer). Each dilution (100nL) was transferred to duplicate tissue culture plates containing 50 μL of media containing 5 × 10^3 cells using a 384 well pin tool. Cells were incubated for 48 h and cell viability was determined using Cell Titer Glow reagents as described by the manufacturer (Promega). Data was acquired using a luminescent plate reader (Envision, Perkin Elmer) and analysed using Activity Base (IDBS, Guilford, UK) and visualised using Spotfire (TIBCO, Palo Alto, CA) as described previously. Each cell line was assayed in independent experiments on at least two occasions. […] Serial 2-fold dilutions of each compound were prepared in media containing 0.2% DMSO and 50 μl of each dilution was added to 10^4 cells in 50 μl of media. Cells were incubated for 48 h and cell viability was determined using Cell Titer Glow assay as described above.

HEL.92.1.7 = experiment: Cell Titer Glo cell viability assay, 48 h; assay type: cell-based, human; conditions: 48 h, mean of 2 independent experiments, 0 = less than 10 nM, cell line not given, read-out: IC50 of inhibitors on cell lines, m (mean)
Experimental: as §1, §2, §3, §4

HL-60 = experiment: Cell Titer Glo cell viability assay, 48 h; assay type: cell-based, human; conditions: 48 h, mean of 2 independent experiments, 0 = less than 10 nM, cell line not given, read-out: IC50 of inhibitors on cell lines, m (mean)
Experimental: as §1, §2, §3, §4

JURKAT = experiment: Cell Titer Glo cell viability assay, 48 h; assay type: cell-based, human; conditions: 48 h, mean of 2 independent experiments, 0 = less than 10 nM, cell line not given, read-out: IC50 of inhibitors on cell lines, m (mean)
Experimental: as §1, §2, §3, §4

K562 = experiment: Cell Titer Glo cell viability assay, 48 h; assay type: cell-based, human; conditions: 48 h, mean of 2 independent experiments, 0 = less than 10 nM, cell line not given, read-out: IC50 of inhibitors on cell lines, m (mean)
Experimental: as §1, §2, §3, §4

KU-812 = experiment: Cell Titer Glo cell viability assay, 48 h; assay type: cell-based, human; conditions: 48 h, mean of 2 independent experiments, 0 = less than 10 nM, cell line not given, read-out: IC50 of inhibitors on cell lines, m (mean)
Experimental: as §1, §2, §3, §4

MEG-01 = experiment: Cell Titer Glo cell viability assay, 48 h; assay type: cell-based, human; conditions: 48 h, mean of 2 independent experiments, 0 = less than 10 nM, cell line not given, read-out: IC50 of inhibitors on cell lines, m (mean)
Experimental: as §1, §2, §3, §4

MOLT4 = experiment: Cell Titer Glo cell viability assay, 48 h; assay type: cell-based, human; conditions: 48 h, mean of 2 independent experiments, 0 = less than 10 nM, cell line not given, read-out: IC50 of inhibitors on cell lines, m (mean)
Experimental: as §1, §2, §3, §4

MV4;11 = experiment: Cell Titer Glo cell viability assay, 48 h; assay type: cell-based, human; conditions: 48 h, mean of 2 independent experiments, 0 = less than 10 nM, cell line not given, read-out: IC50 of inhibitors on cell lines, m (mean)
Experimental: as §1, §2, §3, §4

OCI-AML3 = experiment: Cell Titer Glo cell viability assay, 48 h; assay type: cell-based, human; conditions: 48 h, mean of 2 independent experiments, 0 = less than 10 nM, cell line not given, read-out: IC50 of inhibitors on cell lines, m (mean)
Experimental: as §1, §2, §3, §4

THP-1 = experiment: Cell Titer Glo cell viability assay, 48 h; assay type: cell-based, human; conditions: 48 h, mean of 2 independent experiments, 0 = less than 10 nM, cell line not given, read-out: IC50 of inhibitors on cell lines, m (mean)
Experimental: as §1, §2, §3, §4

U937 = experiment: Cell Titer Glo cell viability assay, 48 h; assay type: cell-based, human; conditions: 48 h, mean of 2 independent experiments, 0 = less than 10 nM, cell line not given, read-out: IC50 of inhibitors on cell lines, m (mean)
Experimental: as §1, §2, §3, §4

[1] = test system: human peripheral blood neutrophils; experiment: Human neutrophil viability by propidium iodide exclusion, flow cytometry; conditions: for sensitivity of human neutrophils: G-CSF or GM-CSF primed 1 h, treated 18 h, dose range; for sensitivity of human neutrophils at 1μM: 18 h
Experimental: Figure 3 Assessment of human neutrophil viability in response to kinase inhibitor treatment Human peripheral blood neutrophils from three healthy donors were primed with G-CSF or GM-CSF for 1 hour before addition of selected kinase inhibitors (as shown) or DMSO (control) at concentrations as indicated. Neutrophil viability was assessed after 18 hours of treatment, by propidium iodide exclusion measured by flow cytometry. Mean ± SEM shown.
Donors were 18 years of age or older and had not taken anti-inflammatory medications during the 2 weeks before donating. […] Human neutrophils were then isolated on a three-layer Percoll gradient as described for mouse bone marrow neutrophils as described. […] Neutrophils were resuspended in DMEM/10%FBS, and primed with 10 ng/mL recombinant human G-CSF (Amgen) or 10 ng/mL recombinant human GM-CSF (Leukine, Sargramostim) for 1 h. Compounds or DMSO carrier were added for […]. Viability was assessed by staining neutrophils with propidium iodide and analyzing on a BD Fortessa.

[2] = cited from earlier work
[3] = test system: primary murine bone-marrow neutrophils; experiment: Live cell imaging viability of primary bone-marrow neutrophils; conditions: for effect on mouse neutrophil viability (words): G-CSF- or GM-CSF-primed, inhibitors at 1 μM, over 24 hours; for effect of chemotherapeutics on neutrophil viability: GM-CSF-primed, dose-dependent, Figure 5D
From the text: Using a high-throughput live cell imaging approach reported previously [15], we examined the effect of the kinase inhibitors on the viability of bone marrow neutrophils to determine their potential to cause neutropenia (Figure 2). Because G-CSF and GM-CSF are dominant regulators of granulopoiesis and neutrophil survival, and are commonly used in a clinical setting to mobilize hematopoietic stem cells into the blood and increase neutrophil production [27–31], we treated cells with these cytokines immediately prior to drug exposure. The addition of either cytokine prevents constitutive neutrophil apoptosis thereby increasing the window for detection of changes in viability induced by drug treatments.
For all above, data represent mean ± SEM from three independent samples.
Mouse bone marrow neutrophils were prepared as described [15]. Neutrophils were resuspended in phenol red-free DMEM/10% FBS for imaging studies. The purity of neutrophil preparations was routinely 96% ± 4% (Mean ± SD, n = 50) as assessed by cytology following May-Grünwald/Giemsa staining.
Kinase inhibitors were purchased from SYN kinase (Melbourne, Australia) and were used at 1 μM, unless otherwise specified, with dilutions performed in assay buffer containing 0.1% DMSO.
Viability was monitored using 2 μg/mL PI (Sigma). Images were captured every 30-60 min by the Zeiss Axiovert 200M Microscope at 37 °C/10% CO2. Quantitative analysis was performed using a custom-scripted MetaMorph (Molecular Devices) journal suite incorporating the count nuclei function, reconstruction & subtraction functions and Integrated Morphometry Analysis to select and analyze cells of interest.

[4] = test system: panel of human leukemia cell lines; experiment: Cell Titer Glo cell viability assay, 48 h, statements across the whole panel; conditions: for cytotoxicity to leukemia cell lines: 12 leukemia cell lines
Experimental: as §1
Figure 1 Effects of kinase inhibition on the proliferation of leukemia cells A. Human leukemia cell lines were treated with duplicate serial dilutions of kinase inhibitors and the effect on cell viability was determined by Cell Titer Glo assay after 48 hours. Data shown represents the mean IC50 of each condition from 2 independent experiments. HL-60 cells were treated with serial dilutions of mTor/PI3K B. and MEK C. inhibitors and the effect on cell viability was determined after 48 hours. Data shown is the mean ± SEM of 3 independent experiments.
as §3, §4

[5] = test system: primary murine myeloid HPCs (lin-c-Kit+Sca-1- cells); experiment: Live cell imaging viability of hematopoietic myeloid progenitor cells
From the text: (C & D) Dose-dependent effects of common chemotherapeutics on GM-CSF-primed primary murine myeloid HPCs C. or GM-CSF-primed primary murine bone-marrow neutrophils D. as assessed by live cell imaging analysis (concentrations as marked). E. Comparison of G-CSF (red/orange) or GM-CSF (blue) priming of myeloid HPCs before treatment with chemotherapeutics as assessed by live cell imaging (concentrations as marked). […] Mean ± SEM with n = 3 independent samples. * p < 0.05.
For purification of myeloid progenitor cells, bone marrow cells were collected in DMEM/10% FCS. After red cell lysis, cells were stained with biotin-conjugated antibodies against Ter119, Gr-1, Mac-1, B220, CD4, CD8 and IL-7Rα and incubated with streptavidin-microbeads (Miltenyi Biotech). Lineage positive cells were depleted by magnetic separation using MACS LS columns and QuadroMACS^TM separator magnets (Miltenyi Biotech). Hematopoietic myeloid progenitor cells that were propidium iodide (PI) negative, lineage-negative, Sca-1 negative and c-Kit positive, were sorted and collected by flow cytometry on a FACSAria or Diva (BD Biosciences). For imaging studies, cells were resuspended in StemPro-34 SFM (Invitrogen). Cells were cultured in 10 ng/mL human G-CSF (Neupogen, Amgen), 10 ng/mL recombinant mouse GM-CSF or 10 ng/mL recombinant human GM-CSF.
The MetaMorph script is available upon request.

[6] = Homo sapiens, read-out: IC50 across most of the cell lines examined

- IC50 (HL-60; Homo sapiens): 100 nM
- IC50 (JURKAT; Homo sapiens): 160 nM
- IC50 (K562; Homo sapiens): 720 nM
- IC50 (MOLT4; Homo sapiens, MOLT-4): 290 nM
- IC50 (MV4;11; Homo sapiens): 150 nM
- IC50 (OCI-AML3; Homo sapiens, OCI-AML-3): 190 nM
- IC50 (THP-1; Homo sapiens): 140 nM
- IC50 (U937; Homo sapiens, U-937): 70 nM
SMILES: CC(C)(C)c1cnc(CSc2cnc(NC(=O)C3CCNCC3)s2)o1 [SNS-032]
- IC50 (EOL-1; Homo sapiens, EOL1): 90 nM
- IC50 (HEL.92.1.7; Homo sapiens): 1330 nM
- IC50 (KU-812; Homo sapiens, KU812): 610 nM
- IC50 (MEG-01; Homo sapiens): 580 nM
- sensitivity of human neutrophils [1]: sensitive
- dose-limiting side-effect in patients ([2]; patients with chronic lymphocytic leukemia and multiple myeloma): neutropenia as the dose-limiting side-effect
- effect on mouse neutrophil viability (words) [3]: induced rapid cell death; also recorded: significant impact on neutrophil viability
- EC50 ([3]; Mus musculus, Neutrophil, 12 h, read-out: EC50 neutrophil viability, Bak-/- Bax deficient): > 1000 nM
- EC50 ([3]; Mus musculus, Neutrophil, 12 h, read-out: EC50 neutrophil viability, Mcl-1+/-): 80 nM
- EC50 ([3]; Mus musculus, Neutrophil, 12 h, read-out: EC50 neutrophil viability, wild-type): 182 nM
- EC50 ([3]; Mus musculus, Neutrophil, read-out: EC50 neutrophil viability, G-CSF primed): 194 nM
- EC50 ([3]; Mus musculus, Neutrophil, read-out: EC50 neutrophil viability, GM-CSF primed): 218 nM

SMILES: CC[C@@H]1C(=O)N(C)c2cnc(Nc3ccc(C(=O)NC4CCN(C)CC4)cc3OC)nc2N1C1CCCC1 [(R)-BI-2536]
- cytotoxicity to leukemia cell lines [4]: potently cytotoxic to all lines examined
- IC50 ([4]; Homo sapiens, read-out: IC50 across all cell lines examined): < 300 nM
- IC50 [4, 6]: ≤ 10 nM
- sensitivity of human neutrophils at 1μM [1]: not sensitive
- sensitivity of human neutrophils [1]: sensitive

- IC50 [4, 6]: ≤ 10 nM
SMILES: NC(=O)Nc1cc(-c2cccc(F)c2)sc1C(=O)N[C@H]1CCCNC1 [AZD7762]
- cytotoxicity to leukemia cell lines [4]: potently cytotoxic to all lines examined
- sensitivity of human neutrophils at 1μM [1]: not sensitive
- sensitivity of human neutrophils [1]: sensitive

SMILES: N.N.O=C([O-])C1(C(=O)[O-])CCC1.[Pt+2] [carboplatin]
- effect of chemotherapeutics on HPC viability ([5]; GM-CSF-primed, dose-dependent, Figure 5C): no effects
- neutropenia in the clinic [2]: induce neutropenia in the clinic
- effect of chemotherapeutics on neutrophil viability [3]: no effects

- IC50 [4, 6]: ≤ 10 nM
SMILES: Cn1c(=O)n(-c2ccc(C(C)(C)C#N)cc2)c2c3cc(-c4cnc5ccccc5c4)ccc3ncc21 [BEZ-235]
- cytotoxicity to leukemia cell lines [4]: potently cytotoxic to all lines examined
- sensitivity of human neutrophils at 1μM [1]: not sensitive
- sensitivity of human neutrophils [1]: sensitive
- effect on mouse neutrophil viability (words) [3]: minimal impact

SMILES: Cc1ccc([N+](=O)[O-])cc1S(=O)(=O)N(C)/N=C/c1cnc2ccc(Br)cn12 [PIK-75]
- IC50 (EOL-1): 40 nM
- IC50 (HEL.92.1.7): 80 nM
- IC50 (HL-60): 60 nM
- IC50 (JURKAT): 90 nM
- IC50 (K562): 330 nM
- IC50 (KU-812): 140 nM
- IC50 (MEG-01): 290 nM
- IC50 (MOLT4): 130 nM
- IC50 (MV4;11): 10 nM
- IC50 (OCI-AML3): 100 nM
- IC50 (THP-1): 100 nM
- IC50 (U937): 60 nM
- cytotoxicity to leukemia cell lines [4]: potently cytotoxic to all lines examined
- IC50 ([4]; read-out: IC50 across most of the cell lines examined, Cell Titer Glo, most of 12 leukemia lines): ≤ 10 nM
- sensitivity of human neutrophils [1]: sensitive
- effect of kinase inhibitors on HPC viability ([5]; G-CSF- or GM-CSF-primed, 1 μM, over 24 hours): active against both G-CSF- and GM-CSF-treated HPC
- EC50 ([3]; read-out: EC50 neutrophil viability, Mcl-1+/-, Mcl-1+/- neutrophils, 12 hour time-point): 57 nM
- EC50 ([3]; read-out: EC50 neutrophil viability, wild-type, WT neutrophils, 12 hour time-point): 228 nM

SMILES: CC(=O)O[C@@]12CO[C@@H]1C[C@H](O)[C@@]1(C)C(=O)[C@H](O)C3=C(C)[C@@H](OC(=O)[C@H](O)[C@@H](NC(=O)OC(C)(C)C)c4ccccc4)C[C@@](O)([C@@H](OC(=O)c4ccccc4)[C@H]21)C3(C)C [docetaxel]
- effect of chemotherapeutics on HPC viability [5]: no effects
- neutropenia in the clinic [2]: induce neutropenia in the clinic
- effect of chemotherapeutics on neutrophil viability [3]: no effects
